Experimental data published in US20110237538A1, “TREATMENT OF LYSOSOMAL STORAGE DISORDERS AND OTHER PROTEOSTATIC DISEASES” (SUMMIT CORPORATION PLC, priority 2008, published 2011).

Assays:
Assay type in all cases: biochemical
[1] = target: T1, α-D-galactosidase (green coffee beans) (Coffea arabica, UniProt Q42656); assay: glycosidase assay with p-nitrophenyl substrates (Example 2); settings: 10 μl of 5 mM iminosugar solution in 70 μl incubation mixture; 20° C.; read-out: Promotion of glycosidase activity: α-D-galactosidase (Green coffee bean)
T1 construct: purchased Sigma Aldrich Chemicals Limited
Method in brief: (§1)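 Iminosugars tested at 5 mM (solution concentration) against p-nitrophenyl substrates (5 mM) in McIlvaine citrate/phosphate buffer at each enzyme's optimum pH, 20° C. Reactions stopped with 0.4M glycine pH 10.4 within the exponential phase; absorbance at 405 nm against water blanks.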

[2] = tested on: α-D-glucosidase (Bacillus sterothermophilus); assay: as above; settings: 10 μl of 5 mM iminosugar solution in 70 μl incubation mixture; 20° C.
Method in brief: as §1

[3] = target: T2, α-L-fucosidase (bovine kidney) (Bos taurus, UniProt Q2KIM0); assay: as above; settings: 10 μl of 5 mM iminosugar solution in 70 μl incubation mixture; 20° C.
T2 construct: purchased Sigma Aldrich Chemicals Limited; host or cells: bovine kidney
T2 sequence (Q2KIM0 23-468): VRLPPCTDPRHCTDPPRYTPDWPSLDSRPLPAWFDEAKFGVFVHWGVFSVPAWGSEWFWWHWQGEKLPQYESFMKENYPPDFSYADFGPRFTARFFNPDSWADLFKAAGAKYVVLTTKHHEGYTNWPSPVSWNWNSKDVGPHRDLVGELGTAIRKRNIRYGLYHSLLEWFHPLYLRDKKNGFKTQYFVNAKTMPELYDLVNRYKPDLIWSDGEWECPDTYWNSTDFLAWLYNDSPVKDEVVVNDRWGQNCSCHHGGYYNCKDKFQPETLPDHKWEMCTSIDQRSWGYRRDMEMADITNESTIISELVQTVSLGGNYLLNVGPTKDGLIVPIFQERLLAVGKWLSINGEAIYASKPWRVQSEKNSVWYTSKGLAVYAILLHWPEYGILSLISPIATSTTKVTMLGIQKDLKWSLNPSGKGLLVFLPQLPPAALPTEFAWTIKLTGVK
Method in brief: as §1

beta-glucuronidase = target: T3, beta-glucuronidase (Homo sapiens, UniProt P08236); assay: inhibition of beta-glucuronidase (Example 3)
T3 sequence (P08236 23-651): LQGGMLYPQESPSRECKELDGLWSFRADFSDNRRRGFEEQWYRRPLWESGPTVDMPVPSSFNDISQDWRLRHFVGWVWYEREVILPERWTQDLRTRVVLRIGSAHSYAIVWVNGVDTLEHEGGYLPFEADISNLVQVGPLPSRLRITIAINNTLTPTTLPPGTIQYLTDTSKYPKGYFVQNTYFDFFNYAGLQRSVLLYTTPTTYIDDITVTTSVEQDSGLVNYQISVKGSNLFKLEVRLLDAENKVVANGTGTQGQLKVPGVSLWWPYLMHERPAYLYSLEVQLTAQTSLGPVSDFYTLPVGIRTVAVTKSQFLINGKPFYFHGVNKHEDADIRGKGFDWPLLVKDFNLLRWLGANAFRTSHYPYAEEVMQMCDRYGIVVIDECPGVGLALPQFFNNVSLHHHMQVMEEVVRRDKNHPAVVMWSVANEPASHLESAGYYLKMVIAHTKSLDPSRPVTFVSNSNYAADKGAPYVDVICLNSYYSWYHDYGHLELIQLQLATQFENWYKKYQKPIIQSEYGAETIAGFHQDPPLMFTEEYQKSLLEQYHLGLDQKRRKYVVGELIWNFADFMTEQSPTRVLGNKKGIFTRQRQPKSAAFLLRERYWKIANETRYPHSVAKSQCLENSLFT
Text: (§2) This compound, for example, might therefore show therapeutic activity for mucopolysaccharidosis type 1.

alpha-L-iduronidase = target: T4, alpha-L-iduronidase (Homo sapiens, UniProt P35475); assay: inhibition of alpha-L-iduronidase (Example 3)
T4 sequence (P35475 28-653): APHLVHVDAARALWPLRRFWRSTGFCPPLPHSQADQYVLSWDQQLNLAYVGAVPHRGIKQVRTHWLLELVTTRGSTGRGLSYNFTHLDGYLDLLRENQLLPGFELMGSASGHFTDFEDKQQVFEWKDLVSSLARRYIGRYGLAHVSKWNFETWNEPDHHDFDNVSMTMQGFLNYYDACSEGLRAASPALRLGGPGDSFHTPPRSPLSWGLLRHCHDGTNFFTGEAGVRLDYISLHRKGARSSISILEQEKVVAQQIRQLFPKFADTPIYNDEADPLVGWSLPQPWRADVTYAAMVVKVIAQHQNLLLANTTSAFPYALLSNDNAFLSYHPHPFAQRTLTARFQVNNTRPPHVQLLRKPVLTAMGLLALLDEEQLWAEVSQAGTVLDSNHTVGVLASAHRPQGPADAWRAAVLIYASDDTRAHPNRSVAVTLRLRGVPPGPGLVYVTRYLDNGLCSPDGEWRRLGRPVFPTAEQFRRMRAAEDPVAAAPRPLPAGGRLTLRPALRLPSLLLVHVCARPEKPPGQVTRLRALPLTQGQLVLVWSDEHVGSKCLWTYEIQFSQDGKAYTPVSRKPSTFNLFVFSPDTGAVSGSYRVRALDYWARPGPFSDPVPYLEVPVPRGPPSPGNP
Text: as §2

[4] = tested on: the other 14 glycosidases described in Example 2; assay: glycosidase panel of Example 2 (selectivity)
Procedure: The assays were conducted as described by Watson et al. 1997, Phytochemistry 46: 255-259 using p-nitrophenyl-substrates. Assays were carried out in microtitre plates. Enzymes were assayed in 0.1M citric acid/0.2M di-sodium hydrogen phosphate (Mcllvaine) buffers at the optimum pH for the enzyme. All assays were carried out at 20° C. All enzymes and substrates were purchased from Sigma Aldrich Chemicals Limited. The incubation mixture consisted of 10 μl of enzyme solution, 10 μl of the iminosugars solution (made up in deionised water at 5 mM) and 50 μl of the appropriate 5 mM p-nitrophenyl substrate made up in McIlvaine buffer at the optimum pH for the enzyme. The reactions were stopped with 0.4M glycine (pH 10.4) during the exponential phase of the reaction, which was determined at the beginning of the assay using blanks with water, which were incubated for a range of time periods to measure the reaction rate using 5 mM substrate solution. Absorbances were read at 405 nm. Water was substituted for the inhibitors in the blanks. […]

T1 sequence (Q42656 16-378): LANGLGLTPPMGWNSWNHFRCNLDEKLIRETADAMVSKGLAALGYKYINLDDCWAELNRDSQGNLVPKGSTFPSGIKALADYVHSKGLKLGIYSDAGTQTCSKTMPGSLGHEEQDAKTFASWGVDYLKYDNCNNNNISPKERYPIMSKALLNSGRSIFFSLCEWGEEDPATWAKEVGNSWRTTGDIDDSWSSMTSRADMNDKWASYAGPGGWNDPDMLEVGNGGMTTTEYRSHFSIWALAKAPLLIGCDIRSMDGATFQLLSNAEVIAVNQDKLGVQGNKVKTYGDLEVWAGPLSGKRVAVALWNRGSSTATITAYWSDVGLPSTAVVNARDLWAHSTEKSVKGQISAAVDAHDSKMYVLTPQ

CCCCCCCCCN1C[C@H](O)[C@H](O)[C@@H]1[C@H](O)[C@H](O)CO [Compound 324, (1S,2R)-1-((2R,3R,4S)-3,4-dihydroxy-1-nonylpyrrolidin-2-yl)propane-1,2,3-triol]
activation at 714 µM [1]: 42% | Promotion of glycosidase activity: α-D-glucosidase (Bacillus sterothermophilus) [2]: 150 % increase in absorbance compared to the water controls | Promotion of glycosidase activity: α-L-fucosidase (Bovine kidney) [3]: 42 % increase in absorbance compared to the water controls

O=C(O)[C@H]1NC[C@H](O)[C@@H](O)[C@@H]1O [Compound 7, (2S,3R,4R,5S)-3,4,5-trihydroxypiperidine-2-carboxylic acid]
inhibition of beta-glucuronidase (in words) (beta-glucuronidase): specific inhibitor

O=C(O)[C@@H]1[C@@H](O)[C@H](O)[C@H]2[C@@H](O)CCN21 [Compound 56, (1R,2R,3S,7S,7aR)-1,2,7-trihydroxyhexahydro-1H-pyrrolizine-3-carboxylic acid]
inhibition of alpha-L-iduronidase (in words) (alpha-L-iduronidase): potently inhibited | inhibition of the other 14 glycosidases described in Example 2 (in words) [4]: none
